From patent US9513294B2, “Megastokes amino-triazolyl-BODIPY compounds and applications to live neuron staining and human serum albumin FA1 drug site probing” (National University of Singapore, priority 2012, dated 2016)
Blank lines part the entries; values can stand above or below the compound they belong to.

Key:
[1] = Quantum yield measurements versus Acridine Yellow in EtOH; format: physicochemical; details: for φ (%): quantum yield; for φ (quantum yield): excitation 460 nm
In short: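 Fluorescence quantum yield is relative to Acridine Yellow in EtOH (Φ 0.47), with excitation at 460 nm. Integrated emission at 510–700 nm was corrected for absorbance at the excitation wavelength and for solvent refractive index.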

[2] = Absorbance and fluorescence emission spectra (SpectraMax M2); format: physicochemical; details: for λmax Abs. (nm) / λmax Em. (nm): MKAC compound library; for λmax Abs. (nm) / λmax Absorp. (nm): absorbance maximum; for λmax Em. (nm) / λmax Emission (nm): fluorescence emission maximum; for λmax Absorp. (nm) / λmax Emission (nm): MKCA compound library
In short: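 Absorbance and emission maxima measured on a SpectraMax M2 spectrophotometer, which also gave quantum yield data; analysis in GraphPrism.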

SMILES: CCCCCC(O)c1cn(-c2ccc3n2[B-](F)(F)[N+]2=C(N4CCCC4)C=CC2=C3c2ccc(NC(C)=O)cc2)nn1 (racemic) [MKAC215-69]
φ (%) ([1]; MKAC compound library): 2.00% | λmax Abs. (nm) [2]: 462 nm | λmax Em. (nm) [2]: 566 nm

SMILES: CC(=O)Nc1ccc(C2=C3C=CC(NCc4cc(F)cc(F)c4)=[N+]3[B-](F)(F)n3c2ccc3-n2cc(CO)nn2)cc1 [MKAC412-70]
φ (%) ([1]; MKAC compound library): 3.96% | λmax Abs. (nm) [2]: 461 nm | λmax Em. (nm) [2]: 561 nm

SMILES: CCCCCc1ccc(-c2cn(-c3ccc4n3[B-](F)(F)[N+]3=C(N5CCCCC5)C=CC3=C4c3ccc(N)cc3)nn2)cc1 [BDC-29]
φ (quantum yield) ([1]; BDC library, Table 2): 0.23% | λmax Absorp. ([2]; BDC library, Table 2): 471 nm | λmax Emission ([2]; BDC library, Table 2): 586 nm

SMILES: CC1CN(C2=[N+]3C(=C(c4ccc(NC(=O)CCl)cc4)c4ccc(-n5cc(C6CC6)nn5)n4[B-]3(F)F)C=C2)CC(C)O1 (stereo not drawn) [MKCA20-4]
φ (%) ([1]; MKCA compound library): 6.11% | λmax Absorp. (nm) [2]: 466 nm | λmax Emission (nm) [2]: 581 nm

SMILES: CC(=O)Nc1ccc(C2=C3C=CC(NCc4ccccc4C)=[N+]3[B-](F)(F)n3c2ccc3-n2cc(CO)nn2)cc1 [MKAC101-70]
φ (%) ([1]; MKAC compound library): 18.11% | λmax Abs. (nm) [2]: 465 nm | λmax Em. (nm) [2]: 561 nm

SMILES: CN(Cc1ccccc1)C1=[N+]2C(=C(c3ccc(NC(=O)CCl)cc3)c3ccc(-n4cc(CCc5ccccc5)nn4)n3[B-]2(F)F)C=C1 [MKCA195-19]
φ (%) ([1]; MKCA compound library): 6.77% | λmax Absorp. (nm) [2]: 467 nm | λmax Emission (nm) [2]: 586 nm

SMILES: CCCC(C)c1cn(-c2ccc3n2[B-](F)(F)[N+]2=C(N4CCCC4)C=CC2=C3c2ccc(N)cc2)nn1 (stereo not drawn) [MK215-3]
φ (quantum yield) ([1]; MK library, Table 5): 0.26% | λmax Absorp. ([2]; MK library, Table 5): 471 nm | λmax Emission ([2]; MK library, Table 5): 567 nm

SMILES: CC(C)CCc1cn(-c2ccc3n2[B-](F)(F)[N+]2=C(N4CCCCC4)C=CC2=C3c2ccc(N)cc2)nn1 [BDC-36]
φ (quantum yield) ([1]; BDC library, Table 2): 0.11% | λmax Absorp. ([2]; BDC library, Table 2): 476 nm | λmax Emission ([2]; BDC library, Table 2): 590 nm

SMILES: COc1ccc2cc(-c3cn(-c4ccc5n4[B-](F)(F)[N+]4=C(N6CCCCC6)C=CC4=C5c4ccc(NC(C)=O)cc4)nn3)ccc2c1 [BDCAC-22]
φ (quantum yield) ([1]; BDCAC library, Table 3): 1.2% | λmax Absorp. ([2]; BDCAC library, Table 3): 465 nm | λmax Emission ([2]; BDCAC library, Table 3): 585 nm

SMILES: CCCc1cn(-c2ccc3n2[B-](F)(F)[N+]2=C(N4CCCCC4)C=CC2=C3c2ccc(NC(=O)CCl)cc2)nn1 [BDCCA-48]
φ (quantum yield) ([1]; BDCCA library, Table 4): 1.4% | λmax Absorp. ([2]; BDCCA library, Table 4): 466 nm | λmax Emission ([2]; BDCCA library, Table 4): 569 nm

SMILES: CCCc1cn(-c2ccc3n2[B-](F)(F)[N+]2=C(N4CC(C)OC(C)C4)C=CC2=C3c2ccc(N)cc2)nn1 (stereo not drawn) [MK20-48]
φ (quantum yield) ([1]; MK library, Table 5): 0.25% | λmax Absorp. ([2]; MK library, Table 5): 476 nm | λmax Emission ([2]; MK library, Table 5): 580 nm

SMILES: CCCc1cn(-c2ccc3n2[B-](F)(F)[N+]2=C(NCc4ccccc4OCC)C=CC2=C3c2ccc(NC(=O)CCl)cc2)nn1 [MKCA103-48]
φ (%) ([1]; MKCA compound library): 38.23% | λmax Absorp. (nm) [2]: 465 nm | λmax Emission (nm) [2]: 562 nm

SMILES: CCOc1ccccc1CNC1=[N+]2C(=C(c3ccc(N)cc3)c3ccc(-n4cc(C5CC5)nn4)n3[B-]2(F)F)C=C1 [MK103-4]
φ (quantum yield) ([1]; MK library, Table 5): 1.68% | λmax Absorp. ([2]; MK library, Table 5): 473 nm | λmax Emission ([2]; MK library, Table 5): 563 nm

SMILES: O=C(CCl)Nc1ccc(C2=C3C=CC(N4CCCC4)=[N+]3[B-](F)(F)n3c2ccc3-n2cc(CO)nn2)cc1 [MKCA215-70]
φ (%) ([1]; MKCA compound library): 1.97% | λmax Absorp. (nm) [2]: 459 nm | λmax Emission (nm) [2]: 568 nm

Further lines, results first:

φ (quantum yield) ([1]; BDC library, Table 2): 0.18% | λmax Absorp. ([2]; BDC library, Table 2): 473 nm | λmax Emission ([2]; BDC library, Table 2): 578 nm
SMILES: COc1cc(OC)cc(-c2cn(-c3ccc4n3[B-](F)(F)[N+]3=C(N5CCCCC5)C=CC3=C4c3ccc(N)cc3)nn2)c1 [BDC-14]

φ (quantum yield) ([1]; MK library, Table 5): 1.08% | λmax Absorp. ([2]; MK library, Table 5): 475 nm | λmax Emission ([2]; MK library, Table 5): 562 nm
SMILES: CCCC(C)c1cn(-c2ccc3n2[B-](F)(F)[N+]2=C(NCc4ccccc4C)C=CC2=C3c2ccc(N)cc2)nn1 (stereo not drawn) [MK101-3]

φ (quantum yield) ([1]; MK library, Table 5): 0.32% | λmax Absorp. ([2]; MK library, Table 5): 476 nm | λmax Emission ([2]; MK library, Table 5): 563 nm
SMILES: CC1CN(C2=[N+]3C(=C(c4ccc(N)cc4)c4ccc(-n5cc(CC6CCCCC6)nn5)n4[B-]3(F)F)C=C2)CC(C)O1 (stereo not drawn) [MK20-8]

φ (quantum yield) ([1]; BDCCA library, Table 4): 0.9% | λmax Absorp. ([2]; BDCCA library, Table 4): 468 nm | λmax Emission ([2]; BDCCA library, Table 4): 590 nm
SMILES: O=C(CCl)Nc1ccc(C2=C3C=CC(N4CCCCC4)=[N+]3[B-](F)(F)n3c2ccc3-n2cc(CC3CCCC3)nn2)cc1 [BDCCA-7]

φ (quantum yield) ([1]; BDC library, Table 2): 0.13% | λmax Absorp. ([2]; BDC library, Table 2): 469 nm | λmax Emission ([2]; BDC library, Table 2): 587 nm
SMILES: CN(C)Cc1cn(-c2ccc3n2[B-](F)(F)[N+]2=C(N4CCCCC4)C=CC2=C3c2ccc(N)cc2)nn1 [BDC-2]

φ (%) ([1]; MKAC compound library): 3.467% | λmax Abs. (nm) [2]: 467 nm | λmax Em. (nm) [2]: 560 nm
SMILES: CCCCCC(O)c1cn(-c2ccc3n2[B-](F)(F)[N+]2=C(N(C)Cc4ccccc4)C=CC2=C3c2ccc(NC(C)=O)cc2)nn1 (racemic) [MKAC195-69]

φ (quantum yield) ([1]; BDC library, Table 2): 0.19% | λmax Absorp. ([2]; BDC library, Table 2): 469 nm | λmax Emission ([2]; BDC library, Table 2): 549 nm
SMILES: Nc1ccc(C2=C3C=CC(N4CCCCC4)=[N+]3[B-](F)(F)n3c2ccc3-n2cc(-c3ccc(OC(F)(F)F)cc3)nn2)cc1 [BDC-15]
